This is an account of results in PMC6930638, “The Masked Polar Group Incorporation (MPGI) Strategy in Drug Design: Effects of Nitrogen Substitutions on Combretastatin and Isocombretastatin Tubulin Inhibitors” (Molecules, 2019).

The subject of data set [1] is HeLa cervix epithelioid carcinoma. Briefly: MTT cell antiproliferative assay, HeLa. Type of data set: cell-based. The settings on record: Homo sapiens, 72 h. The method, then:
(§1) The in vitro antiproliferative activity of the synthesized compounds was evaluated by a colorimetric reaction, using the MTT reagent. They were tested against three different human tumor cell lines: HeLa cervix epithelioid carcinoma, HT-29 colon adenocarcinoma, and MCF-7 breast adenocarcinoma. […] Moving the alkylamino substituent from a para to a meta position with respect to the bridge results in potency reduction, except for the phenstatin analogue 1f. However, the introduction of a nitrogen atom to form 2-dimethylaminopyridine derivatives entails a loss of activity, both for phenstatin analogues (1b, 2b), while for isocombretastatins, it only involves a 2–3 times potency decrease (3b). For combretastatins, it implies an improvement in the cytotoxicity values down to tenths of nanomolar (8b). […] On the other hand, the best 2-dimethylaminopyridine was combretastatin 8b. All ammonium salts derivatives were not cytotoxic at micromolar concentrations.
(§2) HeLa (human cervical carcinoma) and MCF-7 (human breast carcinoma) cell lines were cultured in Dulbecco’s Modified Eagles Medium (DMEM) supplemented with 2 mM L-glutamine (Lonza-Cambrex, Karlskoga, Sweden), 10% (v/v) heat inactivated fetal bovine serum (HIFBS) (Lonza-Cambrex) and 100 μg/mL streptomycin-100 IU/mL penicillin (Lonza-Cambrex) at 37 °C in humidified 95% air and 5% CO2. HT-29 (human colon carcinoma) cells were cultured at 37 °C in complete RPMI 1640 medium containing 2 mM L-glutamine, 10% (v/v) HIFBS and 100 μg/mL streptomycin-100 IU/mL penicillin in humidified 95% air and 5% CO2 atmosphere.
(§3) The effect of the different compounds on the proliferation of human cell lines was determined by using the MTT (3-[4,5-dimethylthiazol-2-yl]-2,5-diphenyltetrazolium bromide) reagent (MTT Thiazolyl Blue Tetrazolium Bromide, Sigma-Aldrich, St. Louis, MO, USA) dissolved in PBS 5 mg/mL. Cell viability was evaluated seeding 100 µL of cells in exponential growth phase with appropriate cell line concentration (1.5 × 10^4 HeLa and MCF-7 cells/mL and 3 × 10^4 HT-29 cells/mL) in complete medium in 96-well plates at 37 °C and 5% CO2. After 24 h incubation to allow cells to attach to the plates the ligands were added at different concentrations from 10^−5 to 10^−9 M. The effect on the proliferation was evaluated 72 h post-treatment by adding the MTT reagent (10 µL/well) to a final concentration of 0.5 mg/mL and the plate was further incubated for another 3 h. After this period, the supernatant was removed, the MTT violet crystals formed on the bottom of each well were dissolved in DMSO (100 µL/well) and subsequently, the absorbance of the color complex was read at 570 nm using a multi-well plate reader. Compounds were dissolved in dimethyl sulfoxide (DMSO) and the final solvent concentrations never exceeded 0.5% (v/v). The control wells included treated cells with 0.5% (v/v) DMSO and the positive control. Measurements were performed in triplicate, and each experiment was repeated three times. […] Nonlinear curves fitting the experimental data were carried out for each compound.

The test system of data set [2] is HeLa, HT-29 and MCF-7 human tumor cell lines. The experiment in a line: Antiproliferative activity over the three human tumor cell lines (MTT). The format is cell-based. The following applies: Homo sapiens, range over the cell lines, Table S1; read-out: Cytotoxicity range (range of antiproliferative IC50 values). The method, then: as §1
The antiproliferative activity of the compounds against three human tumor cell lines of different origins (i.e., HeLa cervix epithelioid carcinoma, HT-29 colon adenocarcinoma and MCF-7 breast adenocarcinoma) was evaluated by the MTT method. […] This high success rate is the result of a combination of favorable scaffolds and substituents, and it is similar to those of previous reports on related series. […] We have previously observed the same trend for related compounds acting at the colchicine site of tubulin [10, 23]. For this pyridine series, we observed a different potency trend when we compare the 4-amino-3-pyridine and the 3-amino-4-pyridine derivatives. […] This different behavior is probably a reflection of their different shape, combined with the different geometries imposed by different bridges. We have previously shown that the potency ordering isocombretastatins similar to oximes higher than benzophenones could be explained by the higher conjugation of the ketones with the aromatic rings, which imposes a more planar disposition than those required for high affinity colchicine site binding. For the 3-amino-4-pyridine series, more planar structures are required in order to avoid the bumping of the amino substituents with tubulin out the plane of the aromatic ring, an effect which we have previously shown to impact the potency of 3-substituted indolecombretastatins and dimethylaminophenyl phenstatins. This different geometrical disposition of the amino substituents, and the different adaptability of their corresponding pockets in the two series, can also account for the preference of bulkier substituents at position 3, such as the pyrrolidine rather than the smaller dimethylamino. […] The opposite is observed for the 4-dimethylaminophenyl phenstatins 1a and 1b. […] The remarkable levels of solubility achieved for the quaternary ammonium salts came unfortunately at the expenses of biological activity.
The effect of the different compounds on the proliferation of human cell lines was determined by using the MTT (3-[4,5-dimethylthiazol-2-yl]-2,5-diphenyltetrazolium bromide) reagent (MTT Thiazolyl Blue Tetrazolium Bromide, Sigma-Aldrich, St. Louis, MO, USA) dissolved in PBS 5 mg/mL. Cell viability was evaluated seeding 100 µL of cells in exponential growth phase with appropriate cell line concentration (1.5 × 10^4 HeLa and MCF-7 cells/mL and 3 × 10^4 HT-29 cells/mL) in complete medium in 96-well plates at 37 °C and 5% CO2. After 24 h incubation to allow cells to attach to the plates the ligands were added at different concentrations from 10^−5 to 10^−9 M. The effect on the proliferation was evaluated 72 h post-treatment by adding the MTT reagent (10 µL/well) to a final concentration of 0.5 mg/mL and the plate was further incubated for another 3 h. […]

In data set [3] the test system is Bovine brain microtubule protein (MTP). The experiment in a line: Tubulin polymerization inhibition assay (turbidimetry). The following applies: 1.5 mg/mL MTP; IC50 calculated only if more than 50% inhibition at 20 µM; read-out: TPI IC50. The format is biochemical. The method, then:
Bovine brain microtubule protein (MTP) was isolated as previously described. Briefly, it was purified according to the modified Shelanski method by two cycles of temperature-dependent assembly/disassembly.
Tubulin polymerization was monitored using a Helios α spectrophotometer by measuring the increase in turbidity at 450 nm, caused by a shift from 4 °C to 37 °C, which allows the in vitro MTP self-disassembly and assembly respectively. […] Firstly, ligands at 20 µM concentration, were incubated with 1.5 mg/mL MTP at 20 °C for 30 min and subsequently cooled on ice for 10 min. Then, the experiment starts at 4 °C to establish the initial baseline. The assembly process was initiated by shifting of the temperature to 37 °C and the turbidity produced can be measured by an absorbance increase. After reaching a stable plateau, the temperature was switched back to 4 °C to return to the initial absorption values. The difference in amplitude between the stable plateau and the initial baseline of the curves was taken as the degree of tubulin polymerization for each experiment. […] All the measurements were carried out in at least two independent experiments using MTP from different isolation.

Data set [4] concerns HT-29 colon adenocarcinoma. The experiment in a line: MTT cell antiproliferative assay, HT-29 (without or with verapamil). Type of data set: cell-based, human. The following applies: for IC50: Homo sapiens, HT-29, MTT, 72 h. The procedure:
as §1
As observed in Table 1, there are no significant changes in the IC50 values for most compounds, except for combretastatins 8a and 8i.
Acquired resistance to antitumor drugs is one of the more important problems of chemotherapy, also affecting tubulin-targeting drugs. In order to ascertain the impact of multidrug resistance phenotypes on the action of the compounds, we have measured the cell proliferation inhibitory activity of HT-29 cells in the presence of verapamil, a known P-glycoprotein 1/multidrug resistance protein 1 (MDR1) inhibitor at a concentration of 10 µM, not affecting cell proliferation. […] Except for the combretastatin analogues 8a and 8i, the affected drugs are all pyridine drugs.
as §2, §3
(In general: Tetrazolium dyes change colour on reduction, which living cells bring about.)

A short description of data set [5]: Aqueous solubility determination (shake flask, UV). Type of data set: physicochemical. The following applies: for solubility at 48 h: thermodynamic from solid. The procedure:
One of the expected effects of introducing nitrogen substitutions on combretastatin and isocombretastatin analogues, is an increase in aqueous solubility. Solubility was spectrophotometrically determined in phosphate buffer at pH 7. UV absorbance of soluble compounds was measured after shaking and microfiltration. […] In addition, aqueous solubilities of the corresponding ammonium salts are over 1 mg/mL.
This great improvement is probably due to the symmetry reduction, combined with an increased polarity for 2g.
Compounds were stirred in a solution of phosphate buffer at pH 7.0 (1–2 mg of compound in 300 µL of buffer) during 48 h. After that, the samples were filtered over a […] filter to discard the insoluble residues. In order to determine the maximum wavelength of absorbance for each compound, a scan between 270 and 400 nm was performed. Once the wavelength was selected, a calibration line was performed and the concentration of the stirred and filtered samples was measured.

In data set [6] the test system is MCF-7 breast adenocarcinoma. The experiment in a line: MTT cell antiproliferative assay, MCF-7. The following applies: Homo sapiens, MCF7, 72 h. The format is cell-based. The procedure: as §1, §2, §3
Setting [7] is: phosphate buffer, pH 7, aqueous buffer, phosphate buffer pH 7.0, 48 h stirring, filtered, UV, read-out: Solub.
The mark [8] stands for this setting: aqueous buffer, phosphate buffer pH 7.0, 48 h stirring, filtered, UV, read-out: Solub.

In brackets after ≈: the same amount, converted by molar mass. Like-named read-outs stand apart in the source and are kept apart here.

The IC50 is the concentration that inhibits the measured activity by half. Regarding `C=C(c1ccc(N2CCCC2)nc1)c1cc(OC)c(OC)c(OC)c1` [Compound 3c, 2-(Pyrrolidin-1-yl)-5-(1-(3,4,5-trimethoxyphenyl)vinyl)pyridine], the IC50 in data set [1] is 523 nM; in data set [2] it was 140 to 523 nM; in data set [3], more than 20000 nM; in data set [4], 383 nM.

For `C=C(c1ccnc(N(C)C)c1)c1cc(OC)c(OC)c(OC)c1` [Compound 3g, N,N-Dimethyl-4-(1-(3,4,5-trimethoxyphenyl)vinyl)pyridin-2-amine], in data set [5] (setting [7]), the solubility at 48 h came to 136 µg/mL (≈ 433 µM). In addition, the IC50 is 403 nM in data set [1], 367 nM in data set [6], more than 20000 nM in data set [3] and 397 nM in data set [4].

Regarding `COc1cc(C=Cc2ccc(N3CCCC3)cc2)cc(OC)c1OC` [Compound 8i, 1-(4-(3,4,5-Trimethoxystyryl)phenyl)pyrrolidine], the 50% inhibitory concentration (IC50) in data set [1] amounted to 243 nM; in data set [6], 140 nM; in data set [4] it was 430 nM. Besides, the “improvement of HT-29 IC50 after verapamil treatment” value in data set [4] (10 µM verapamil) is reported as more than 2 fold.

`COc1cc(C(=O)c2ccc(N(C)C)cc2)cc(OC)c1OC` [Compound 1a, (4-(Dimethylamino)phenyl)(3,4,5-trimethoxyphenyl)methanone] had a Solub. in data set [5] (phosphate buffer pH 7.0, 48 h stirring, filtered, UV) of 48 µg/mL. In addition, the IC50 in data set [1] was 90 nM; in data set [3] it was more than 20000 nM; in data set [4], 400 nM.

`C=C(c1ccc(N(C)C)cc1)c1cc(OC)c(OC)c(OC)c1` [Compound 3a, N,N-Dimethyl-4-(1-(3,4,5-trimethoxyphenyl)vinyl)aniline]: the solubility at 48 h in data set [5] (setting [8]) is 30 µg/mL (≈ 95.7 µM). The 50% inhibitory concentration (IC50) in data set [1] is 40 nM; in data set [3], 1900 nM; in data set [4] it was 70 nM.

Turning to `COc1cc(C(=O)c2ccc(N3CCCC3)nc2)cc(OC)c1OC` [Compound 1c, (6-(Pyrrolidin-1-yl)pyridin-3-yl)(3,4,5-trimethoxyphenyl)methanone], the half-maximal inhibitory concentration (IC50) was 1600 nM in data set [1]; more than 1000 nM in data set [2]; 2330 nM in data set [6]; more than 20000 nM in data set [3]; 5170 nM in data set [4].

As for `C=C(c1ccc(N(C)C)cc1)c1ccc(OC)c(OC)c1OC` [Compound 3d, N,N-dimethyl-4-(1-(2,3,4-trimethoxyphenyl)vinyl)aniline], the IC50 is 1000 nM in data set [1]; more than 1000 nM in data set [2]; 2000 nM in data set [6]; more than 20000 nM in data set [3]; 4000 nM in data set [4].

`COc1cc(C(=NO)c2ccnc(N(C)C)c2)cc(OC)c1OC` [Compound 2g, (2-(Dimethylamino)pyridin-4-yl)(3,4,5-trimethoxyphenyl)methanone oxime]: the solubility at 48 h in data set [5] (setting [7]) was 583 µg/mL (≈ 1760 µM); in data set [5] (phosphate buffer, pH 7, aqueous buffer, phosphate buffer pH 7, stated in text, read-out: aqueous solubility), approximately 600 µg/mL (≈ 1810 µM). The IC50 is 533 nM in data set [1], 407 nM in data set [6], more than 20000 nM in data set [3] and 3370 nM in data set [4].

For the compound `COc1ccc(C(=NO)c2ccc(N(C)C)cc2)c(OC)c1OC` [Compound 2d, (4-(Dimethylamino)phenyl)(2,3,4-trimethoxyphenyl)methanone oxime], the IC50 in data set [1] is 373 nM; in data set [6], 277 nM; in data set [3], more than 20000 nM; in data set [4], 320 nM.

For the compound `COc1ccc(C(=O)c2ccc(N(C)C)cc2)c(OC)c1OC` [Compound 1d, (4-(Dimethylamino)phenyl)(2,3,4-trimethoxyphenyl)methanone], the 50% inhibitory concentration (IC50) in data set [1] was 413 nM; in data set [2], 407 to 650 nM; in data set [6], 407 nM; in data set [3], more than 20000 nM; in data set [4], 500 nM.

In the case of `COc1cc(C(=NO)c2ccc(N(C)C)cc2)cc(OC)c1OC` [Compound 2a, (4-(Dimethylamino)phenyl)(3,4,5-trimethoxyphenyl)methanone oxime], the solubility at 48 h in data set [5] (setting [8]) turned out to be 74 µg/mL (≈ 224 µM). In addition, the IC50 in data set [1] was 800 nM; in data set [3], more than 20000 nM; in data set [4], 1000 nM.
